In one test the target is T1, COX-1 (Rattus norvegicus, UniProt Q63921).
T1 construct: as measured in the mucosal lining of the rat stomach; from tissue; host or cells: mucosal lining of the rat stomach, in vivo
T1 sequence (Q63921 27-602): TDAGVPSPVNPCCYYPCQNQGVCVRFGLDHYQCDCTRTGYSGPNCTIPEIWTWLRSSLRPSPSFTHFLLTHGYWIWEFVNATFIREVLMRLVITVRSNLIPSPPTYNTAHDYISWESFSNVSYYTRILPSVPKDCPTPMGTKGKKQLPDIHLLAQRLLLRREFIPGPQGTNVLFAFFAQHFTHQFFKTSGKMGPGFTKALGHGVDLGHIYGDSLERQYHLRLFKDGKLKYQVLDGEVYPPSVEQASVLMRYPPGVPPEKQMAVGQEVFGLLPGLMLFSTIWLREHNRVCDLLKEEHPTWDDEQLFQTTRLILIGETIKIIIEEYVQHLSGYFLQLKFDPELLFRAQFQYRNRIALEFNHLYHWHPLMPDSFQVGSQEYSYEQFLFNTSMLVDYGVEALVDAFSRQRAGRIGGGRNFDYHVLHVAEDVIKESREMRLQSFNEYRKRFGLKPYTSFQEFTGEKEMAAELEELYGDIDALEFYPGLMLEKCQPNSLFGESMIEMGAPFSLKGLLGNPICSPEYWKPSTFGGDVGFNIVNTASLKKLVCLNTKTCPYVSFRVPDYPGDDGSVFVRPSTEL
Nature of the test: Rat in vivo COX-1: PGE2 production in mucosal lining of stomach (Griffiths et al.). The method, then: (§1) In vivo cyclo-oxygenase selectivity was evaluated in rats by the method of Griffiths et al., described in Agents & Actions, 32, (1991), 313-320. […] Synovial fluid is secreted by the synovial membrane and is contained in joint cavities. During joint inflammation, COX-2 is induced in joint tissues and prostaglandin products accumulate in the synovial fluid. […] Inhibition of this stomach isozyme results in adverse gastrointestinal side effects.

Test [1] addresses COX-2 (Canis lupus familiaris, UniProt Q8SPQ9). As to the kind of experiment: in vivo. The conditions noted are these: for PGE2 Pg/mL/Well: group average; for inhibition at 2 mg/kg / inhibition at 10 mg/kg: dog, po. The method, then: A zero-hour blood sample was collected from all dogs in the study prior to dosing, followed by 1-, 3-, and 6-hour post-dose blood sample collections. […] Test tubes used as controls contained vehicle and were unstimulated by the addition of any agent. A 500 μL sample of blood was added to each of the above-described test tubes, after which they were incubated at 37° C. for one hr in the case of the calcium ionophore-containing test tubes, and overnight in the case of the LPS-containing test tubes. After incubation, 10 μL of EDTA was added to give a final concentration of 0.3%, in order to prevent coagulation of the plasma which sometimes occurs after thawing frozen plasma samples. The incubated samples were centrifuged at 4° C. and the resulting plasma sample of ˜200 μL was collected and stored at −20° C. in polypropylene 96-well plates. In order to determine endpoints for this study, enzyme immunoassay (EIA) kits available from Cayman were used to measure production of TXB2 and PGE2, utilizing the principle of competitive binding of tracer to antibody and endpoint determination by colorimetry.
The data is expressed as treatment group averages in pg/mL of TXB2 and PGE2 produced per sample. Plasma dilution was not factored in said data values.

The target in test [2] is COX-2 (Rattus norvegicus, UniProt P35355). Nature of the test: in vivo. The note with it: read-out: COX-2 ED50. The method, then:
as §1

Read-outs that look alike come from different tables or passages of the source.

COX-2 (Canis lupus familiaris, UniProt Q8SPQ9), sequence (Q8SPQ9 18-604): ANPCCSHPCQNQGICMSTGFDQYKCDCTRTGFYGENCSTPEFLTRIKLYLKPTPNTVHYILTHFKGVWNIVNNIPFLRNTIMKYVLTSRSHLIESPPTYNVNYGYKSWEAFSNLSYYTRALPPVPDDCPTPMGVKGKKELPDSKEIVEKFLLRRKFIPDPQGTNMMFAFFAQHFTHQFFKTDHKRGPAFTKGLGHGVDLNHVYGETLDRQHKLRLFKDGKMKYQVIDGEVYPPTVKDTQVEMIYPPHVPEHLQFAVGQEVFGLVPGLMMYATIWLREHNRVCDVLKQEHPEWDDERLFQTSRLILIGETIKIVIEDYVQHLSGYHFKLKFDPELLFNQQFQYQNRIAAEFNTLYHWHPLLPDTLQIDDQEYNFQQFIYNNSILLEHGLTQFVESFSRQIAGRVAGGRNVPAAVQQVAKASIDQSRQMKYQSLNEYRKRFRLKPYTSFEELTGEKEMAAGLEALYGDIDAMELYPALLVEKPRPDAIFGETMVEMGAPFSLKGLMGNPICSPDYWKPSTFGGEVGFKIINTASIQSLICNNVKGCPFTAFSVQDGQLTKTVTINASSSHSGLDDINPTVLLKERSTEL
COX-2 (Rattus norvegicus, UniProt P35355), sequence (P35355 18-604): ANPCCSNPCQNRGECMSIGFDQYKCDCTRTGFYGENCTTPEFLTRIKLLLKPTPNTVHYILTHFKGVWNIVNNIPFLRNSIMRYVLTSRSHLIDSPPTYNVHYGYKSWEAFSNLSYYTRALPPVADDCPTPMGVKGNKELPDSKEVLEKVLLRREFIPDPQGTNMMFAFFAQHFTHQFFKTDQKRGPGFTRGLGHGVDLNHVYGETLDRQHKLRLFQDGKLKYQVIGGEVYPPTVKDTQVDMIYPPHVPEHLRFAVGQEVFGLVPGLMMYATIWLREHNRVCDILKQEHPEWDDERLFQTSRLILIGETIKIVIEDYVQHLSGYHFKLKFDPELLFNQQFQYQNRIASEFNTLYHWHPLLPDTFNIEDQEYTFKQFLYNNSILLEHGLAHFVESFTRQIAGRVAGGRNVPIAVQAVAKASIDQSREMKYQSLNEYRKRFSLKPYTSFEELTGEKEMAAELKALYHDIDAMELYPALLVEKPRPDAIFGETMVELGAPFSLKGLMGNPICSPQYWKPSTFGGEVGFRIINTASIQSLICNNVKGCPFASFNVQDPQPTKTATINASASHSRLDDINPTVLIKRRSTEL

In the case of `CC(C(=O)O)c1ccc2c(c1)[nH]c1ccc(Cl)cc12` (racemic) [Carprofen (rac.), 6-chloro-α-methyl-9H-carbazole-2-acetic acid], the ED50 (usually the dose that gives a 50% effect, or the effect in half of the subjects) amounted to 6.4 mg/kg on COX-1 and 0.63 mg/kg on COX-2 [2]. Moreover, the “PGE2 Pg/mL/Well” value on COX-2 [1] (2 mg/kg PO capsule, 0-hour (pre-dose)) came to 511 Pg/mL/Well; on COX-2 [1] (2 mg/kg PO capsule, 1-hour post-dose), 33 Pg/mL/Well; on COX-2 [1] (2 mg/kg PO capsule, 3-hour post-dose) it was 98 Pg/mL/Well; on COX-2 [1] (2 mg/kg PO capsule, 6-hour post-dose), 190 Pg/mL/Well; on COX-2 [1] (10 mg/kg PO capsule, 0-hour (pre-dose)), 336 Pg/mL/Well; on COX-2 [1] (10 mg/kg PO capsule, 1-hour post-dose) it was 19 Pg/mL/Well. Also, the “PGE2 Pg/mL/Well” value at COX-2 [1] (10 mg/kg PO capsule, 3-hour post-dose) is 12 Pg/mL/Well; on COX-2 [1] (10 mg/kg PO capsule, 6-hour post-dose), 12 Pg/mL/Well. The inhibition at 2 mg/kg turned out to be 94% on COX-2 [1] (read-out: COX-2 activity Percent Inhibition, 2 mg/kg PO capsule, 1-hour, based on zero hour value); 81% on COX-2 [1] (read-out: COX-2 activity Percent Inhibition, 2 mg/kg PO capsule, 3-hour, based on zero hour value); 63% on COX-2 [1] (read-out: COX-2 activity Percent Inhibition, 2 mg/kg PO capsule, 6-hour, based on zero hour value). For the same compound, the inhibition at 10 mg/kg was 94% on COX-2 [1] (read-out: COX-2 activity Percent Inhibition, 10 mg/kg PO capsule, 1-hour, based on zero hour value); 96% at COX-2 [1] (read-out: COX-2 activity Percent Inhibition, 10 mg/kg PO capsule, 3-hour, based on zero hour value); 96% on COX-2 [1] (read-out: COX-2 activity Percent Inhibition, 10 mg/kg PO capsule, 6-hour, based on zero hour value).

The record behind these values is patent publication US20030212123A1, “COX-2 selective carprofen for treating pain and inflammation in dogs” (Pfizer Inc., priority 1997, published 2003).
